From patent US20230151003A1, “COMPOUNDS AND METHODS OF USE” (Exelixis, Inc., priority 2020, published 2023) come the findings set out here.

For assay [1], the target named is T1, Mer (Homo sapiens, UniProt Q12866).
T1 construct: host or cells: 293A cells (Thermo Fisher #R70507)
T1 sequence (Q12866 21-999): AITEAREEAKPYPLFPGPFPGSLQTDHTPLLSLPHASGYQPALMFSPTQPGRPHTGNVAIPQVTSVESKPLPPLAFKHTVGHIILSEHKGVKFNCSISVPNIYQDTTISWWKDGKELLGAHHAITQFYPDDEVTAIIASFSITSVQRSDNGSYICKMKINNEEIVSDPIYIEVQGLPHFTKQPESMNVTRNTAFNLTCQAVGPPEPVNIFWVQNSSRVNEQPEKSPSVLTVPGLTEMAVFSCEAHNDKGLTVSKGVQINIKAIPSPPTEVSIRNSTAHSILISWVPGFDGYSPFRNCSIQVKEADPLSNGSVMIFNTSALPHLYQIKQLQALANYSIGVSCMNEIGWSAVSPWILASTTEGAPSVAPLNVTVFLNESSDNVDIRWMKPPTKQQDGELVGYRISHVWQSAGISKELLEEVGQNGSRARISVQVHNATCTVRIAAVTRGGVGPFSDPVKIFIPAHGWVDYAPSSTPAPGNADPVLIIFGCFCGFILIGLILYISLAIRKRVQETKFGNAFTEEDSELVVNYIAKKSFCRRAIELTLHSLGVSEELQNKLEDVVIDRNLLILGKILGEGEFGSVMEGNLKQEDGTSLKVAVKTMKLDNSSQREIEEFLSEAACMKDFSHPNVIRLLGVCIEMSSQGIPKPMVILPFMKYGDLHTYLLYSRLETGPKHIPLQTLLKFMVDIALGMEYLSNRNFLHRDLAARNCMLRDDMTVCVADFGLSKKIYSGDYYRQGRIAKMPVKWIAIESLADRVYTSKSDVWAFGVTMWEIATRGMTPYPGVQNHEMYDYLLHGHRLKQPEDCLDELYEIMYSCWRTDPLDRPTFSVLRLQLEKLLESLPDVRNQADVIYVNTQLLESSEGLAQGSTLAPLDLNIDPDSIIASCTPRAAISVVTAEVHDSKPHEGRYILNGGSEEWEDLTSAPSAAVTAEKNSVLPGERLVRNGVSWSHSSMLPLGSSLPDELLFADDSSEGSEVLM
Kind of assay: Mer autophosphorylation ELISA in transient transfected 293A cells. The format is cell-based. The conditions noted are these: Table 3 Cellular Activities; MERTK-transfected 293A cells, phospho-Mer ELISA. In a few lines: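 Phospho-Mer quantified by ELISA in lysates of transiently MERTK-transfected 293A cells after 1 h exposure to an 8-point compound series, serum-free, 0.3% DMSO. Activity normalized between DMSO-treated (100%) and reference inhibitor-treated (0%) lysates; IC50 via 4-parameter nonlinear regression.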
(An ELISA detects its analyte on a solid surface through an enzyme-linked reagent.)

Assay [2] deals with Met (Homo sapiens, UniProt P08581). Kind of assay: Met autophosphorylation ELISA in PC-3 cells. The format is cell-based. On the set-up: endogenous in cells; host or cells: PC-3 prostate cancer cells (ATCC #CRL-1435). The settings on record: Table 3 Cellular Activities, HGF-stimulated, phospho-Met ELISA, read-out: c-Met IC50. In a few lines:
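IC50 derived by 4-parameter logistic regression of phospho-Met (panTyr) sandwich ELISA signal, scaled between HGF-stimulated DMSO and reference-inhibitor lysates. PC-3 cells, serum-starved 3 h, received an 8-point compound series (0.3% DMSO) for 1 h before 10 min stimulation with 100 ng/mL human HGF.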

Met, sequence (P08581 25-1390): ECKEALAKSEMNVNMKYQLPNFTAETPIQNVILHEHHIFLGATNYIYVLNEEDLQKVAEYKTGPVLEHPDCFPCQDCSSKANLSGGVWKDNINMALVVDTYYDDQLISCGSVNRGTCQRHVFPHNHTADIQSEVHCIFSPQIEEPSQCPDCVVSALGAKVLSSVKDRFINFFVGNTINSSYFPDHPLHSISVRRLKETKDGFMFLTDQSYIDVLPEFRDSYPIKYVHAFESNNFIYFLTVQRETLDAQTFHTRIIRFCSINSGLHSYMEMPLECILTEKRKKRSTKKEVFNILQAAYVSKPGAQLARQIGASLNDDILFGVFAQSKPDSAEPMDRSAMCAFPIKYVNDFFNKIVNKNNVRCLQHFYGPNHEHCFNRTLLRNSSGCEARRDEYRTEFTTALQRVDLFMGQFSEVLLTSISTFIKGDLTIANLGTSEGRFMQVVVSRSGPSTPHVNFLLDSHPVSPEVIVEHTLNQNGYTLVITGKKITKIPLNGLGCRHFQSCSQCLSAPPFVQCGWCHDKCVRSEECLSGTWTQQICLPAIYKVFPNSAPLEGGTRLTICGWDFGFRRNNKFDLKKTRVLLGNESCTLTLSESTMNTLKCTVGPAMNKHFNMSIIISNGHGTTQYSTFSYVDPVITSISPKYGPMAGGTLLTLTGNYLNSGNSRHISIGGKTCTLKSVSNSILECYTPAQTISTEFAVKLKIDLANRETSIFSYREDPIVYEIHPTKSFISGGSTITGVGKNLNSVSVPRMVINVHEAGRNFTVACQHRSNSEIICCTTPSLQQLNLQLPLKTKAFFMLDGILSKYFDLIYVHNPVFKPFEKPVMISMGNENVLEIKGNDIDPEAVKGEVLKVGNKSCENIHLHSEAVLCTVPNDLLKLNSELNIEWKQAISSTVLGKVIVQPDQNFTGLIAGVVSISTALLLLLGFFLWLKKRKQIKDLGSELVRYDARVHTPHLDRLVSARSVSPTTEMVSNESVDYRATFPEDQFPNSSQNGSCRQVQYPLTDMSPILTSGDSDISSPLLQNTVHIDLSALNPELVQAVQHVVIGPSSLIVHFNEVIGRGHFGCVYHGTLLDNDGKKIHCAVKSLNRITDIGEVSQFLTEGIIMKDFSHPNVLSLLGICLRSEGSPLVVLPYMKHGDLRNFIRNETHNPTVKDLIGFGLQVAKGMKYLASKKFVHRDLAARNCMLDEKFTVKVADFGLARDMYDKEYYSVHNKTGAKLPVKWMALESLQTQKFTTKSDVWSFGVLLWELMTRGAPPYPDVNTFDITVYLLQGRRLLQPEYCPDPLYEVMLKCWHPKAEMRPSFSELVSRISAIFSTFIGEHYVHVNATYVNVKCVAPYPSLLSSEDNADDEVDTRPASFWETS

The term IC50 denotes the concentration needed to halve the response being measured. Regarding `COc1cnc2c(Oc3ccc(NC(=O)c4cn(CCF)c(C)c(-c5cc(C)cs5)c4=O)cc3F)ccnc2c1` [Compound 328, 1-(2-Fluoroethyl)-N-[3-fluoro-4-[(7-methoxy-1,5-naphthyridin-4-yl)oxy]phenyl]-6-methyl-5-(4-methylthiophen-2-yl)-4-oxopyridine-3-carboxamide], the IC50 in assay [1] and in assay [2] was at most 100 nM throughout.

As to `COc1cc2nccc(Oc3ccc(NC(=O)c4nccn(-c5ccc(F)cn5)c4=O)cc3F)c2nc1OC` [Compound 246, N-[4-[(6,7Dimethoxy-1,5-naphthyridin-4-yl)oxy]-3-fluorophenyl]-4-(5-fluoropyridin-2-yl)-3-oxopyrazine-2-carboxamide], the IC50 in assay [1] and in assay [2] was at most 100 nM each time.

For `COc1cc(-n2c(C)ccc(C(=O)Nc3ccc(Oc4ccnc5cc(OC)c(OC)nc45)c(F)c3)c2=O)ccn1` [Compound 226, N-[4-[(6,7-Dimethoxy-1,5-naphthyridin-4-yl)oxy]-3-fluorophenyl]-1-(2-methoxypyridin-4-yl)-6-methyl-2-oxopyridine-3-carboxamide], the IC50 in assay [1] and in assay [2] was at most 100 nM each time.

As for `COc1cc2nccc(Oc3ccc(NC(=O)c4cc(C(C)=O)c(C)n(-c5ccoc5)c4=O)cc3F)c2nc1OC` [Compound 235, 5-Acetyl-N-[4-[(6,7-dimethoxy-1,5-naphthyridin-4-yl)oxy]-3-fluorophenyl]-1-(furan-3-yl)-6-methyl-2-oxopyridine-3-carboxamide], the IC50 in assay [1] and in assay [2] was at most 100 nM throughout.

For the molecule `COc1cc2nccc(Oc3ccc(NC(=O)c4ccc(C)n(-c5ccc(F)cn5)c4=O)cc3F)c2nc1OC` [Compound 43, N-[4-[(6,7-Dimethoxy-1,5-naphthyridin-4-yl)oxy]-3-fluorophenyl]-1-(5-fluoropyridin-2-yl)-6-methyl-2-oxopyridine-3-carboxamide], the half-inhibitory concentration (IC50) in assay [1] and in assay [2] was at most 100 nM in each case.

As for `COc1cc2nccc(Oc3ccc(NC(=O)c4cnc(C)c(-c5ccco5)c4O)cc3)c2cc1OC` [Compound 258, N-[4-(6,7-Dimethoxyquinolin-4-yl)oxyphenyl]-5-(furan-2-yl)-4-hydroxy-6-methylpyridine-3-carboxamide], the IC50 in assay [1] and in assay [2] was at most 100 nM throughout.

In the case of `COCCOc1cc2nccc(Oc3ccc(NC(=O)c4cnc(C)c(-c5ccco5)c4O)cc3F)c2nc1OC` [Compound 260, N-[3-Fluoro-4-[[6-methoxy-7-(2-methoxyethoxy)-1,5-naphthyridin-4-yl]oxy]phenyl]-5-(furan-2-yl)-4-hydroxy-6-methylpyridine-3-carboxamide], the IC50 in assay [1] and in assay [2] was at most 100 nM in each case.

Turning to `COc1cc2nccc(Oc3ccc(NC(=O)c4c5n(cc(-c6cccs6)c4=O)CCOC5)cc3F)c2nc1OC` [Compound 309, N-[4-[(6,7-Dimethoxy-1,5-naphthyridin-4-yl)oxy]-3-fluorophenyl]-8-oxo-7-thiophen-2-yl-3,4-dihydro-1H-pyrido[2,1-c][1,4]oxazine-9-carboxamide], the IC50 in assay [1] and in assay [2] was at most 100 nM in each case.

For `COc1cnc2c(Oc3ccc(NC(=O)c4c(C)ncc(-c5ccccn5)c4O)cc3F)ccnc2c1` [Compound 70, N-[3-Fluoro-4-[(7-methoxy-1,5-naphthyridin-4-yl)oxy]phenyl]-4-hydroxy-2-methyl-5-pyridin-2-ylpyridine-3-carboxamide], the IC50 in assay [1] and in assay [2] was at most 100 nM each time.

With `COc1cc2nccc(Oc3ccc(NC(=O)c4ccc(C)n(-c5ccncc5)c4=O)cc3F)c2nc1OC` [Compound 221, N-[4-[(6,7-Dimethoxy-1,5-naphthyridin-4-yl)oxy]-3-fluorophenyl]-6-methyl-2-oxo-1-pyridin-4-ylpyridine-3-carboxamid], the IC50 in assay [1] and in assay [2] was at most 100 nM each time.

In the case of `COc1cc2nccc(Oc3ccc(NC(=O)c4c5n(cc(-c6ccoc6)c4=O)CCOC5)cc3)c2nc1OC` [Compound 310, N-[4-[(6,7-Dimethoxy-1,5-naphthyridin-4-yl)oxy]phenyl]-7-(furan-3-yl)-8-oxo-3,4-dihydro-1H-pyrido[2,1-c][1,4]oxazine-9-carboxamide], the half-inhibitory concentration (IC50) was at most 100 nM in assay [1] and 300 to 1000 nM in assay [2].

As for `COc1cc2nccc(Oc3ccc(NC(=O)c4ccc(C)n(-c5ccnc(C)c5)c4=O)cc3F)c2nc1OC` [Compound 230, N-[4-[(6,7-Dimethoxy-1,5-naphthyridin-4-yl)oxy]-3-fluorophenyl]-6-methyl-1-(2-methylpyridin-4-yl)-2-oxopyridine-3-carboxamide], the IC50 in assay [1] and in assay [2] was at most 100 nM throughout.

On to `COc1cc2nccc(Oc3ccc(NC(=O)c4c5n(c(C)c(-c6ccsc6)c4=O)CCOC5)cc3F)c2nc1OC` [Compound 307, N-[4-[(6,7-Dimethoxy-1,5-naphthyridin-4-yl)oxy]-3-fluorophenyl]-6-methyl-8-oxo-7-thiophen-3-yl-3,4-dihydro-1H-pyrido[2,1-c][1,4]oxazine-9-carboxamide], for which the IC50 in assay [1] and in assay [2] was at most 100 nM each time.

As for `COc1cc2nccc(Oc3ccc(NC(=O)c4c(C)n(C)c(C)c(-c5coc6ccccc56)c4=O)cc3F)c2nc1OC` [Compound 262, 5-(1-Benzofuran-3-yl)-N-[4-[(6,7-dimethoxy-1,5-naphthyridin-4-yl)oxy]-3-fluorophenyl]-1,2,6-trimethyl-4-oxopyridine-3-carboxamide], the IC50 in assay [1] is at most 100 nM; in assay [2], 300 to 1000 nM.

Consider `COc1cc2nccc(Oc3ccc(NC(=O)c4cn(CCF)c(C)c(-c5cccs5)c4=O)cc3F)c2nc1OC` [Compound 327, N-[4-[(6,7-Dimethoxy-1,5-naphthyridin-4-yl)oxy]-3-fluorophenyl]-1-(2-fluoroethyl)-6-methyl-4-oxo-5-thiophen-2-ylpyridine-3-carboxamide], for which the IC50 in assay [1] and in assay [2] was at most 100 nM throughout.

As to `COc1cc2nccc(Oc3ccc(NC(=O)c4ccc(C)n(-c5ccnc(F)c5)c4=O)cc3F)c2nc1OC` [Compound 233, N-[4-[(6,7-Dimethoxy-1,5-naphthyridin-4-yl)oxy]-3-fluorophenyl]-1-(2-fluoropyridin-4-yl)-6-methyl-2-oxopyridine-3-carboxamide], the IC50 in assay [1] and in assay [2] was at most 100 nM throughout.

Take `COc1cc2nccc(Oc3ccc(NC(=O)c4c(C)ccn(-c5ccc(F)cn5)c4=O)cc3F)c2nc1OC` [Compound 41, N-[4-[(6,7-Dimethoxy-1,5-naphthyridin-4-yl)oxy]-3-fluorophenyl]-1-(5-fluoropyridin-2-yl)-4-methyl-2-oxopyridine-3-carboxamide]: the IC50 in assay [1] and in assay [2] was at most 100 nM in each case.

Consider `COc1cnc2c(Oc3ccc(NC(=O)c4cnc(C)c(-c5cccs5)c4O)cc3)ccnc2c1` [Compound 257, 4-Hydroxy-N-[4-[(7-methoxy-1,5-naphthyridin-4-yl)oxy]phenyl]-6-methyl-5-thiophen-2-ylpyridine-3-carboxamide], for which the IC50 in assay [1] and in assay [2] was at most 100 nM in each case.

In the case of `COc1cc2c(Oc3ccc(NC(=O)c4c(C)ncc(-c5ccccn5)c4O)cc3F)ccnc2cn1` [Compound 223, N-[3-Fluoro-4-[(6-methoxy-1,7-naphthyridin-4-yl)oxy]phenyl]-4-hydroxy-2-methyl-5-pyridin-2-ylpyridine-3-carboxamide], the IC50 in assay [1] and in assay [2] was at most 100 nM throughout.
